Earlier results, collected in patent US4606909A, “Pharmaceutical multiple-units formulation” (priority 1981, dated 1986).

Settings: ambient temperature

Q: Which “parts by volume of water required to dissolve 1 part by weight of the substance” value (from here on “parts by volume of water required”) does the source give for `CC(=O)S[C@@H]1CC2=CC(=O)CC[C@]2(C)[C@H]2CC[C@@]3(C)[C@@H](CC[C@@]34CCC(=O)O4)[C@H]12` [spironolactone] here?
A: Its value is “more than 1000 parts by volume of water”.

Q: For `C[C@]12CC[C@H]3[C@@H](CCC4=CC(=O)CC[C@@]43C)[C@@H]1CC[C@@H]2O` [testosterone], which “parts by volume of water required” value is on record?
A: Its value is “more than 1000 parts by volume of water”.

Q: With `CCCCNC(=O)NS(=O)(=O)c1ccc(C)cc1` [tolbutamide] as the compound, how does the “parts by volume of water required” value read?
A: The value was “more than 1000 parts by volume of water”.
